Ends that are not written are not given here.
Tests used:
[1] = system: B-cell lymphoblastic leukemia; test: Doxycycline treatment of tet-BCL-2/MMTV-tTA/Eμ-myc leukemic mice; assay type: in vivo, mouse; settings: doxycycline 500 μg/ml in drinking water, from 4-5 weeks of age
Excerpt: Using standard recombinant DNA technology, the tet-BCL-2 allele was targeted to the DNA methyltransferase 1 locus (FIG. 10). By crossing the new mouse line with the MMTV-tTA line (Jackson Labs) mice were generated which conditionally overexpress BCL-2 in epithelial cells and in B-lineage lymphocytes. Administration of doxycycline successfully suppresses BCL-2 overexpression in these animals. When these mice are crossed with mice expressing myc in the B-lymphocyte lineage (Eμ-myc mice, Jackson Labs) mice which uniformly have B-cell lymphoblastic leukemia were obtained.
To examine the effect of removing BCL-2 expression form the leukemia cells, the effects of doxycycline treatment in a cohort of 28 mice were examined. By genotype, each of the 28 mice contained the tet-BCL-2, the MMTV-tTA, and the Eμ-myc alleles. […] At 4-5 weeks of age, half were treated with doxycycline (500 μg/ml) in drinking water, and half were left untreated. The WBC was measured by hemocytometer using 2 μl blood from tail which was lysed with 0.3% saponin and stained with Hoechst 33258.

GST-BCL-2 [2] = molecular target: T1, GST-BCL-2 (Homo sapiens, UniProt P10415); test: Fluorescence polarization binding of fluoresceinated BH3 peptides to GST-BCL-2; settings: Kd (nM), BCL-2 Binding, 25 nM fluoresceinated peptide, GST-BCL-2 titration, 37° C.
T1 construct: a GST-BCL-2 fusion protein lacking the C-terminal transmembrane domain was utilized; made in house; host or cells: E. coli BL21 DE3
Excerpt: (§1) To determine Kd for peptide binding to BCL-2, a GST-BCL-2 fusion protein lacking the C-terminal transmembrane domain was utilized. Peptides were synthesized with a fluorescein amino-terminus using an AHA linker. […] An increase in fluorescence polarization measured on a Perkin-Elmer LS 50B luminescence spectrophotometer was quantitated to calculate binding. A non-linear fit to a sigmoidal dose-response curve utilized the program Origin 6.0 to determine Kd. […] Data were fitted to a sigmoidal curve as above, and IC50 determined.
(§2) GST-BCL-2δC21 fusion proteins were induced in BL21 DE3 by 0.1 mM IPTG. The bacterial pellets were resuspended in lysis buffer (1 mg/ml lysozyme/1% Triton X-100/0.1 mg/ml PMSF/2 μg/ml aprotinin/2 μg/ml leupeptine/1 μg/ml pepstatin A in PBS) and sonicated. After centrifugation at 20,000×g for 20 min, the supernatant was applied to glutathione-agarose beads (Sigma). The beads were washed with PBS and treated with 50 mM glutathione/50 mM TrisHCl, pH8.0 to elute protein. Eluate was dialyzed against binding buffer and concentrated using Amicon centrifugal concentrating devices.

GST-BCL-2 [3] = molecular target: T1, GST-BCL-2; test: BH3 peptide displacement from GST-BCL-2 by fluorescence polarization; assay type: binding
Excerpt: as §1, §2

MCL-1 = MCL-1 (Homo sapiens, UniProt Q07820); test: MCL-1 binding
MCL-1, sequence (Q07820 whole entry, species assumed): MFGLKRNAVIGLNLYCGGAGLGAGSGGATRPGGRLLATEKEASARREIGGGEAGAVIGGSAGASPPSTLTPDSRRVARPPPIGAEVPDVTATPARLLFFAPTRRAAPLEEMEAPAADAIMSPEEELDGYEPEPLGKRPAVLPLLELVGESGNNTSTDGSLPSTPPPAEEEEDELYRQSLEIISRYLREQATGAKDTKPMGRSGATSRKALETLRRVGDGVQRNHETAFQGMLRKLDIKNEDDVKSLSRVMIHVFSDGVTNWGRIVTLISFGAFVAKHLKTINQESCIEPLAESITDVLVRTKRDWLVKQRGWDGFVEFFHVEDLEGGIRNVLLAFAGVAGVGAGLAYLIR

T1 sequence (P10415 1-218 limits assumed): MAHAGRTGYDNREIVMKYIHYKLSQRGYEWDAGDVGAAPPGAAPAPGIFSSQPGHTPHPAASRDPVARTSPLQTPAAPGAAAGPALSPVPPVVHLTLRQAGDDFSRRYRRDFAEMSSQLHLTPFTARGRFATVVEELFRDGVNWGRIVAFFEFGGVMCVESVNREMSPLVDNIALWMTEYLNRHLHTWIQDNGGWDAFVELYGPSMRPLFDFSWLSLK

| Molecule | decrease in WBC [1] | Kd (GST-BCL-2 [2]) [nM] | IC50 (GST-BCL-2 [3]) [nM] | Kd (MCL-1) [nM] |
| --- | --- | --- | --- | --- |
| C[C@H]1c2cccc(O)c2C(=O)C2=C(O)[C@]3(O)C(=O)C(C(N)=O)=C(O)[C@@H](N(C)C)[C@@H]3[C@@H](O)[C@@H]21 [doxycycline] | 1-2 log |  |  |  |
| EDIIRNIARHAAQVGASMDR [BIDBH3 mut] |  | > 1000 | > 30000 | > 2600 |

— patent publication US9902759B2, “BH3 peptides and methods of use thereof” (Dana-Farber Cancer Institute, Inc., priority 2002, dated 2018)
